Experiments:
[1] = system: AML cells in bone marrow; assay: Intra-vital 2-photon imaging of AML cell motility in bone marrow; assay type: in vivo, triple reporter mice; conditions: from 2.2 μm/min, p<0.001; i.v. administration
Text: (§1) Intra-vital imaging was employed to investigate the effects of Compound B on AML cell motility in the bone marrow of triple reporter mice (Blood: dextran-TRITC; Host T-cells: DsRed; Host myeloid CD11 cells: EYFP) injected with AML cells carrying a turquoise fluorescent protein reporter gene. […] Individual cells were dislodged from the niche and traveled long-distance (FIG. 17C). The combined inhibition of E-selectin and CXCR4 depleted bone marrow vascular niche areas of leukemia cells.

[2] = system: patient-derived primary AML xenograft (JAK2 and c-Kit); assay: PDX model (mutations in JAK2 and c-Kit), LSC retention and CyTOF of BM cells; assay type: in vivo, mice
Text: as §1
In order to better understand how the augmented AML mobilization improves the efficacy of AML therapy, BM cells from PDX mice treated for 2 weeks with Compound A, Compound B, venetoclax/HMA (Ven/HMA), and their combinations were analyzed by single-cell proteomics (CyTOF). […] However, pharmacological antagonists of E-selectin (Compound A) or E-selectin/CXCR4 (Compound B) protected endothelial cells from Ven/HMA-induced detrimental insults through upregulation of survival signaling cascades, including pAKT, pERK, pMAPK and […] eNOS expression in endothelial cells compared to Ven/HMA treatment alone.

[3] = system: leukemia cells with ECs and MSCs; conditions: Zhang et al., 2016, cited from earlier work
[4] = system: leukemia cells in the BM; conditions: in vivo; Zhang et al., 2016; cited from earlier work
[5] = system: luc-MV4.11 cells; assay: MV4.11 AML model survival; assay type: in vivo, NSG mice; conditions: 40 mg/kg Compound A i.p., 100 mg/kg venetoclax oral, 14 days once daily
Procedure: To evaluate the efficacy of targeting E-selectin with Compound A in combination with venetoclax, an in vivo MV4.11 AML model was employed (FIG. 16).
luc-MV4.11 cells (5×10^6 cells/mouse) were transplanted into NSG mice. Mice were divided into four groups: vehicle treatment only; 40 mg/kg of Compound A (intraperitoneal, 14 day once daily); 100 mg/kg venetoclax (oral, 14 days once daily), and a combination of 40 mg/kg Compound A and 100 mg/kg venetoclax. Drug treatment was initiated on day 10 post-transplantation.

[6] = in combination with Ven/HMA, 2 weeks, CyTOF of BM cells

Row | SMILES | AML cell motility [1] | levels of E-selectin ligand, mTOR, pFAK, pRb, cMyc [2, 6] | p21 and cleaved caspase3 [2, 6] | protection of MSC ([2]; mouse, in vivo) | protection of endothelial cells from Ven/HMA-induced detrimental insults ([2]; upregulated pAKT, pERK, pMAPK, decreased eNOS vs Ven/HMA alone) | leukemia cell adhesion to ECs and MSCs [3] | BM-mediated protection of leukemic cells during FLT3-targeted therapy ([3]; in vitro) | leukemia cells in the BM [4] | median survival time (MST) [5]
1 | CCC1CC(C(=O)NCCNCc2ccc(CN3CCCNCCNCCCNCC3)c(Br)c2)CC(OC2OC(CO)C(O)C(O[C@@H](CC3CCCCC3)C(=O)O)C2NC(C)=O)C1OC1OC(C)C(O)C(O)C1O (stereo partly drawn) [Compound B] | 5.4 μm/min | diminished | increasing | protected | protected | markedly reduced | eliminated | effectively reduced | 
2 | CC1(C)CCC(CN2CCN(c3ccc(C(=O)NS(=O)(=O)c4ccc(NCC5CCOCC5)c([N+](=O)[O-])c4)c(Oc4cnc5[nH]ccc5c4)c3)CC2)=C(c2ccc(Cl)cc2)C1 [venetoclax] |  |  |  |  |  |  |  |  | 46 days

— patent publication US20240269157A1, “COMPOSITIONS AND METHODS FOR OVERCOMING MICROENVIRONMENT-MEDIATED RESISTANCE VIA E-SELECTIN TARGETING” (GLYCOMIMETICS, INC., priority 2021, published 2024)
